Patent US11917959B2, “Multi-ear system to enhance monocot plant yield” (Monsanto Technology LLC, priority 2015, dated 2024)

Legend:
[1] = system: haploid maize populations; test: Doubling efficiency of four germplasms after co-dominant ear induction (Example 3); format: in vivo; design: DE50: unit not given beside the values; settings: 60 mL 2.5% PBZ at V7 or V8
Experimental: Two F1 hybrid-derived (one male and one female) haploid populations (referred to herein as H1 and H2) and two inbred-derived haploid lines (male Germplasm B and female Germplasm A) were tested in this experiment. Seven days after planting, several dozen seedlings from each group were removed from the soil and subjected to a bulk colchicine-based chromosome doubling treatment as described above. After the chromosome doubling treatment, seedlings were transplanted to soil and tended in a greenhouse at standard maize growing conditions. When the seedlings had reached approximately the V7 or V8 stage (approximately 29 days after doubling under the growing conditions used), the seedlings were subjected to co-dominant ear induction treatment comprising 60 mL of 2.5% PBZ added to the soil surrounding the base of each stem.
The seedlings were then tended in standard greenhouse maize growing conditions until they flowered, at which time each plant that produced pollen was self-pollinated and then left undisturbed to await fertilization and kernel production. After approximately 2-3 weeks, ears were harvested and the kernels that formed on them (DH1) were counted to determine doubling efficiencies.
Doubling efficiencies (DE) were calculated under the different constraints described in the previous example to generate values for DE04, DE20, DE30, and DE50 for each of the four genotypes. Furthermore, the above doubling efficiencies were calculated once by considering only the kernels that formed on the primary ear of each plant (Ear1), once by considering only the kernels that formed on the primary and secondary ear of each plant (Ear2), once by considering only the kernels that formed on the primary, secondary, and tertiary ear of each plant (Ear3), and finally by considering all the kernels that formed on all the ears of each plant (Earall).

[2] = system: eleven corn inbred germplasm; test: Chemistry treatment of eleven corn inbred germplasm at V3 or V8 (Example 12); format: in vivo; settings: for Avg Kernels from Main Stem / Avg Total Kernels Per Plant: auto-self
Excerpt: Seeds for eleven corn inbred germplasm was planted in six-packs and grown in greenhouses under standard conditions as outlined in Example 1. At thirteen days after germination the seedlings for the eleven different germplasm (20 plants per germplasm) were transplanted into standard pots. […]

[3] = pedigree A, 3HV: 14DAP, 4 mg/plant, 2% 50 mL
[4] = pedigree A, 3LV: 14DAP, 4 mg/plant, 6.25% 16 mL
[5] = pedigree A, 8HV: 28DAP, 8 mg/plant, 2% 100 mL
[6] = pedigree A, 8LV: 28DAP, 8 mg/plant, 13% 16 mL
[7] = pedigree B, 3HV: 14DAP, 6 mg/plant, 3% 50 mL
[8] = pedigree B, 3LV: 14DAP, 6 mg/plant, 9.38% 16 mL
[9] = pedigree B, 8HV: 28DAP, 16 mg/plant, 4% 100 mL
[10] = pedigree B, 8LV: 28DAP, 16 mg/plant, 25% 16 mL
[11] = pedigree C, 3LV: 14DAP, 6 mg/plant, 9.38% 16 mL
[12] = pedigree C, 8HV: 28DAP, 16 mg/plant, 4% 100 mL
[13] = pedigree C, 8LV: 28DAP, 16 mg/plant, 25% 16 mL
[14] = pedigree D, 3HV: 14DAP, 6 mg/plant, 3% 50 mL
[15] = pedigree D, 3LV: 14DAP, 6 mg/plant, 9.38% 16 mL
[16] = pedigree D, 8HV: 28DAP, 16 mg/plant, 4% 100 mL
[17] = pedigree D, 8LV: 28DAP, 16 mg/plant, 25% 16 mL
[18] = pedigree E, 3HV: 14DAP, 6 mg/plant, 3% 50 mL
[19] = pedigree E, 3LV: 14DAP, 6 mg/plant, 9.38% 16 mL
[20] = pedigree E, 8HV: 28DAP, 16 mg/plant, 4% 100 mL
[21] = pedigree E, 8LV: 28DAP, 16 mg/plant, 25% 16 mL
[22] = pedigree F, 3HV: 14DAP, 6 mg/plant, 3% 50 mL
[23] = pedigree F, 3LV: 14DAP, 6 mg/plant, 9.38% 16 mL
[24] = pedigree F, 8HV: 28DAP, 16 mg/plant, 4% 100 mL
[25] = pedigree F, 8LV: 28DAP, 16 mg/plant, 25% 16 mL
[26] = pedigree G, 3HV: 14DAP, 6 mg/plant, 3% 50 mL
[27] = pedigree G, 3LV: 14DAP, 6 mg/plant, 9.38% 16 mL
[28] = pedigree G, 8HV: 28DAP, 16 mg/plant, 4% 100 mL
[29] = pedigree G, 8LV: 28DAP, 16 mg/plant, 25% 16 mL
[30] = pedigree H, 3HV: 14DAP, 6 mg/plant, 3% 50 mL
[31] = pedigree H, 3LV: 14DAP, 6 mg/plant, 9.38% 16 mL
[32] = pedigree H, 8HV: 28DAP, 16 mg/plant, 4% 100 mL
[33] = pedigree H, 8LV: 28DAP, 16 mg/plant, 25% 16 mL
[34] = pedigree I, 3HV: 14DAP, 10 mg/plant, 5% 50 mL
[35] = pedigree I, 3LV: 14DAP, 10 mg/plant, 15.63% 16 mL
[36] = pedigree I, 8HV: 28DAP, 32 mg/plant, 8% 100 mL
[37] = pedigree I, 8LV: 28DAP, 32 mg/plant, 50% 16 mL
[38] = pedigree J, 3HV: 14DAP, 10 mg/plant, 5% 50 mL
[39] = pedigree J, 3LV: 14DAP, 10 mg/plant, 15.63% 16 mL
[40] = pedigree J, 8HV: 28DAP, 32 mg/plant, 8% 100 mL
[41] = pedigree J, 8LV: 28DAP, 32 mg/plant, 50% 16 mL
[42] = pedigree K, 3HV: 14DAP, 6 mg/plant, 3% 50 mL
[43] = pedigree K, 8HV: 28DAP, 16 mg/plant, 4% 100 mL
[44] = pedigree K, 8LV: 28DAP, 16 mg/plant, 25% 16 mL
[45] = pedigree K, K3LV: 14DAP, 6 mg/plant, 9.38% 16 mL

## CC(C)(C)[C@@H](O)[C@@H](Cc1ccc(Cl)cc1)n1cncn1 (relative stereo) [PBZ, (±)-(R*, R*)-beta-((4-chlorophenyl)methyl)-alpha-(1,1,-dimethylethyl)-1H-1,2,4,-triazole-1-ethanol]
[1]; Ear1, Control A
  DE04: 72.9
  DE20: 60.7
  DE30: 48.6
  DE50: 48.6
[1]; Ear1, Control B
  DE04: 64.8
  DE20: 44.5
  DE30: 40.5
  DE50: 32.4
[1]; Ear1, Germplasm A
  DE04: 64.6
  DE20: 37.4
  DE30: 30.6
  DE50: 23.8
[1]; Ear1, Germplasm B
  DE04: 56.7
  DE20: 40.5
  DE30: 40.5
  DE50: 40.5
[1]; Earall, Control A
  DE04: 81
  DE20: 76.9
  DE30: 76.9
  DE50: 64.8
[1]; Earall, Control B
  DE04: 68.8
  DE20: 56.7
  DE30: 56.7
  DE50: 44.5
[1]; Earall, Germplasm A
  DE04: 81.6
  DE20: 71.4
  DE30: 71.4
  DE50: 64.6
[1]; Earall, Germplasm B
  DE04: 68.8
  DE20: 48.6
  DE30: 44.5
  DE50: 44.5
[2]; diverse germplasm treated at V3 (14DAP) or V8 (28DAP), FIG. 11
  kernel number per plant: average increase in kernel number per plant
[2]; every germplasm tested, FIG. 10
  decrease in height, on average: 30-50%
[2]; [3]
  Avg Kernels from Main Stem: 330.50
  Avg Total Kernels Per Plant: 351.00
[2]; [4]
  Avg Kernels from Main Stem: 352.25
  Avg Total Kernels Per Plant: 515.75
[2]; [5]
  Avg Kernels from Main Stem: 337.00
  Avg Total Kernels Per Plant: 345.75
[2]; [6]
  Avg Kernels from Main Stem: 366.50
  Avg Total Kernels Per Plant: 413.00
[2]; [7]
  Avg Kernels from Main Stem: 204.00
  Avg Total Kernels Per Plant: 215.50
[2]; [8]
  Avg Kernels from Main Stem: 260.25
  Avg Total Kernels Per Plant: 291.25
[2]; [9]
  Avg Kernels from Main Stem: 567.00
  Avg Total Kernels Per Plant: 567.25
[2]; [10]
  Avg Kernels from Main Stem: 427.00
  Avg Total Kernels Per Plant: 432.75
[2]; [11]
  Avg Kernels from Main Stem: 291.50
  Avg Total Kernels Per Plant: 611.25
[2]; [12]
  Avg Kernels from Main Stem: 148.00
  Avg Total Kernels Per Plant: 255.25
[2]; [13]
  Avg Kernels from Main Stem: 325.75
  Avg Total Kernels Per Plant: 513.25
[2]; [14]
  Avg Kernels from Main Stem: 616.75
  Avg Total Kernels Per Plant: 766.25
[2]; [15]
  Avg Kernels from Main Stem: 631.25
  Avg Total Kernels Per Plant: 839.25
[2]; [16]
  Avg Kernels from Main Stem: 581.75
  Avg Total Kernels Per Plant: 646.75
[2]; [17]
  Avg Kernels from Main Stem: 727.75
  Avg Total Kernels Per Plant: 745.50
[2]; [18]
  Avg Kernels from Main Stem: 334.50
  Avg Total Kernels Per Plant: 405.25
[2]; [19]
  Avg Kernels from Main Stem: 291.25
  Avg Total Kernels Per Plant: 422.50
[2]; [20]
  Avg Kernels from Main Stem: 532.50
  Avg Total Kernels Per Plant: 678.25
[2]; [21]
  Avg Kernels from Main Stem: 583.25
  Avg Total Kernels Per Plant: 772.75
[2]; [22]
  Avg Kernels from Main Stem: 414.75
  Avg Total Kernels Per Plant: 1078.75
[2]; [23]
  Avg Kernels from Main Stem: 392.00
  Avg Total Kernels Per Plant: 777.75
[2]; [24]
  Avg Kernels from Main Stem: 301.00
  Avg Total Kernels Per Plant: 442.25
[2]; [25]
  Avg Kernels from Main Stem: 461.00
  Avg Total Kernels Per Plant: 661.00
[2]; [26]
  Avg Kernels from Main Stem: 381.50
  Avg Total Kernels Per Plant: 905.50
[2]; [27]
  Avg Kernels from Main Stem: 485.50
  Avg Total Kernels Per Plant: 1033.50
[2]; [28]
  Avg Kernels from Main Stem: 284.50
  Avg Total Kernels Per Plant: 567.00
[2]; [29]
  Avg Kernels from Main Stem: 542.75
  Avg Total Kernels Per Plant: 728.25
[2]; [30]
  Avg Kernels from Main Stem: 77.50
  Avg Total Kernels Per Plant: 80.00
[2]; [31]
  Avg Kernels from Main Stem: 73.25
  Avg Total Kernels Per Plant: 83.00
[2]; [32]
  Avg Kernels from Main Stem: 388.50
  Avg Total Kernels Per Plant: 520.00
[2]; [33]
  Avg Kernels from Main Stem: 439.75
  Avg Total Kernels Per Plant: 564.75
[2]; [34]
  Avg Kernels from Main Stem: 172.00
  Avg Total Kernels Per Plant: 218.75
[2]; [35]
  Avg Kernels from Main Stem: 175.00
  Avg Total Kernels Per Plant: 191.25
[2]; [36]
  Avg Kernels from Main Stem: 508.75
  Avg Total Kernels Per Plant: 550.50
[2]; [37]
  Avg Kernels from Main Stem: 448.25
  Avg Total Kernels Per Plant: 448.25
[2]; [38]
  Avg Kernels from Main Stem: 587.00
  Avg Total Kernels Per Plant: 1005.75
[2]; [39]
  Avg Kernels from Main Stem: 602.75
  Avg Total Kernels Per Plant: 953.25
[2]; [40]
  Avg Kernels from Main Stem: 361.50
  Avg Total Kernels Per Plant: 398.75
[2]; [41]
  Avg Kernels from Main Stem: 280.50
  Avg Total Kernels Per Plant: 298.75
[2]; [42]
  Avg Kernels from Main Stem: 317.75
  Avg Total Kernels Per Plant: 365.00
[2]; [43]
  Avg Kernels from Main Stem: 446.75
  Avg Total Kernels Per Plant: 487.00
[2]; [44]
  Avg Kernels from Main Stem: 495.00
  Avg Total Kernels Per Plant: 539.75
[2]; [45]
  Avg Kernels from Main Stem: 418.75
  Avg Total Kernels Per Plant: 437.75
